Where only a bound is given, the exact number is not on record here.

One assay has as its target Protein kinase C (PKC). The experiment in a line: Inhibition of protein kinase C (PKC) from rat brain homogenate.
Assay [1] has as its target Mitogen-activated protein kinase kinase kinase 10 (Homo sapiens, UniProt Q02779). The experiment in a line: Inhibition of Mixed lineage kinase 2(MLK2).
The target in assay [2] is Mitogen-activated protein kinase kinase kinase 9 (Homo sapiens, UniProt P80192). The assay can be described thus: Inhibition of Mixed lineage kinase 1 (MLK1).
Mitogen-activated protein kinase kinase kinase 9, sequence (P80192 whole entry): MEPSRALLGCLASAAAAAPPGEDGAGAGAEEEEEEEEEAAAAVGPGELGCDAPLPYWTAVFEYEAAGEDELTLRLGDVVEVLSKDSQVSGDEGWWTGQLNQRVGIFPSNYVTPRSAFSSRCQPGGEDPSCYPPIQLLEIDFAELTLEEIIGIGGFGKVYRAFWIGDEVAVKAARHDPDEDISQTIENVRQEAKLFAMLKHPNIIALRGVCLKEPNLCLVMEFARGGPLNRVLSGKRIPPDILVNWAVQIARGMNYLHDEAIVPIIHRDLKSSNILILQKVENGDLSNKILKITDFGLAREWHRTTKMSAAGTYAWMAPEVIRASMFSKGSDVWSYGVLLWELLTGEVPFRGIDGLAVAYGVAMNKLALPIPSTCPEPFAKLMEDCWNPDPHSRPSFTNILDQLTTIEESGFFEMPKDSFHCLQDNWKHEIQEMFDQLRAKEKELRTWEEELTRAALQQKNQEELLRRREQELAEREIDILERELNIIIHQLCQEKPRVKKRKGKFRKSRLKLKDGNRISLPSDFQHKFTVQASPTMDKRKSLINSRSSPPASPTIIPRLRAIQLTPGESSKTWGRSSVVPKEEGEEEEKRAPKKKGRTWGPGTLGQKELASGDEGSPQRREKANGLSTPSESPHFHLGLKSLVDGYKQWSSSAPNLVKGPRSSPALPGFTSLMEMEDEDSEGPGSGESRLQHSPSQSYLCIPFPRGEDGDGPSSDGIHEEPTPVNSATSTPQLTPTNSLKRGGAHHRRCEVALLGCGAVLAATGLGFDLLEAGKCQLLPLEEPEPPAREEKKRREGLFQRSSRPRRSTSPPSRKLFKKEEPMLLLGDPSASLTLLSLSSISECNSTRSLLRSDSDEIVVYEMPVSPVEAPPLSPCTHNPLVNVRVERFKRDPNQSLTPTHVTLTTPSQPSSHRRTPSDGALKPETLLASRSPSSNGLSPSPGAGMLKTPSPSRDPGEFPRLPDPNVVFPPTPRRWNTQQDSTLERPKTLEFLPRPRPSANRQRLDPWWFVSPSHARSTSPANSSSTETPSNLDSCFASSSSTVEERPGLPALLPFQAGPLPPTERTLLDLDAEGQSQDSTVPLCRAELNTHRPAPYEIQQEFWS
In assay [3] the target is Mitogen-activated protein kinase kinase kinase 11 (Homo sapiens, UniProt Q16584). The experiment in a line: Inhibition of Mixed lineage kinase 3 (MLK3).
Mitogen-activated protein kinase kinase kinase 11, sequence (Q16584 whole entry): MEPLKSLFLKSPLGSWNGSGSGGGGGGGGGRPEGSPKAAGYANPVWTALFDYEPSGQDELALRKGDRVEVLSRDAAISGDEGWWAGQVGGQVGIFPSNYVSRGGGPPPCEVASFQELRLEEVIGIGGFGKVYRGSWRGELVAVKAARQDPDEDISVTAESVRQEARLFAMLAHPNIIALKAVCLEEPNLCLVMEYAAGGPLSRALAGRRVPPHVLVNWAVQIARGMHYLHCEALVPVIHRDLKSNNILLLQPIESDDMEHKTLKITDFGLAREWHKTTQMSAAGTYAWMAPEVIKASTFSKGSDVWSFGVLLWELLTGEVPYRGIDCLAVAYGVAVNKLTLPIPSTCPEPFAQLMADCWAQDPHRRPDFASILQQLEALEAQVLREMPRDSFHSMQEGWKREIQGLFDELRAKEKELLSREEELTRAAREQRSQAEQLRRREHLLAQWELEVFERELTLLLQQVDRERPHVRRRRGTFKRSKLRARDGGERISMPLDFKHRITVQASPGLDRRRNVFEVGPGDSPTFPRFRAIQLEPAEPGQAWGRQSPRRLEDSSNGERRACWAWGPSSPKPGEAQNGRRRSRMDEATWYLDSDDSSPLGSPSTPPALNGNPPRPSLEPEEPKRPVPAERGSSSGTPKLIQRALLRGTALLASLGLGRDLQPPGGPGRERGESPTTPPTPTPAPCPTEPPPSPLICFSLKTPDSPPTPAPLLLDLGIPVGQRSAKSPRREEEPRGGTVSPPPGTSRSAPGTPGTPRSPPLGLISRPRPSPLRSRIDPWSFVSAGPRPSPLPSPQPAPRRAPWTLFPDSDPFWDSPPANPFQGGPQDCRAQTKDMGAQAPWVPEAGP
Assay [4] concerns the target High affinity nerve growth factor receptor (Homo sapiens, UniProt P04629). The assay can be described thus: Inhibition of NGF high affinity receptor tyrosine kinase TrkA.

High affinity nerve growth factor receptor, sequence (P04629 whole entry): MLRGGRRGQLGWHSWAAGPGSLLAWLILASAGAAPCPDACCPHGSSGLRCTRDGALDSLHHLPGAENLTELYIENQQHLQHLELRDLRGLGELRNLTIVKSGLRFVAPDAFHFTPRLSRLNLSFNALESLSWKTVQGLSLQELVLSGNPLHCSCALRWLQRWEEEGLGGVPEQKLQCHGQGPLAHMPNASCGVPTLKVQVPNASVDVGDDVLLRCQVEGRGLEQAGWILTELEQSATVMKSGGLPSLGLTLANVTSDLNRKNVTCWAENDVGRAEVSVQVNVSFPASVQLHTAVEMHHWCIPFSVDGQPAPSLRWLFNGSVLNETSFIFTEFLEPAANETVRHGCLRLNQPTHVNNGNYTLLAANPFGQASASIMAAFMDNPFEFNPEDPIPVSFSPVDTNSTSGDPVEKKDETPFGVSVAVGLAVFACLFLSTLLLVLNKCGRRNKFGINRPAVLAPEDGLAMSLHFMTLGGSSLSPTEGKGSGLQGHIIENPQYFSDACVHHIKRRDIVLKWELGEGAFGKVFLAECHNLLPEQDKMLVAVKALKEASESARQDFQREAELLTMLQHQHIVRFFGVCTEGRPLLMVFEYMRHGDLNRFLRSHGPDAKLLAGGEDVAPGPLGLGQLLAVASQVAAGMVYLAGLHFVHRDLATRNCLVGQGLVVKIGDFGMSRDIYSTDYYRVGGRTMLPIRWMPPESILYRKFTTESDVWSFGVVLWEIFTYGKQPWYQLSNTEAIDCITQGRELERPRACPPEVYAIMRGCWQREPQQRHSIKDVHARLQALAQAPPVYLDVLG
Mitogen-activated protein kinase kinase kinase 10, sequence (Q02779 whole entry): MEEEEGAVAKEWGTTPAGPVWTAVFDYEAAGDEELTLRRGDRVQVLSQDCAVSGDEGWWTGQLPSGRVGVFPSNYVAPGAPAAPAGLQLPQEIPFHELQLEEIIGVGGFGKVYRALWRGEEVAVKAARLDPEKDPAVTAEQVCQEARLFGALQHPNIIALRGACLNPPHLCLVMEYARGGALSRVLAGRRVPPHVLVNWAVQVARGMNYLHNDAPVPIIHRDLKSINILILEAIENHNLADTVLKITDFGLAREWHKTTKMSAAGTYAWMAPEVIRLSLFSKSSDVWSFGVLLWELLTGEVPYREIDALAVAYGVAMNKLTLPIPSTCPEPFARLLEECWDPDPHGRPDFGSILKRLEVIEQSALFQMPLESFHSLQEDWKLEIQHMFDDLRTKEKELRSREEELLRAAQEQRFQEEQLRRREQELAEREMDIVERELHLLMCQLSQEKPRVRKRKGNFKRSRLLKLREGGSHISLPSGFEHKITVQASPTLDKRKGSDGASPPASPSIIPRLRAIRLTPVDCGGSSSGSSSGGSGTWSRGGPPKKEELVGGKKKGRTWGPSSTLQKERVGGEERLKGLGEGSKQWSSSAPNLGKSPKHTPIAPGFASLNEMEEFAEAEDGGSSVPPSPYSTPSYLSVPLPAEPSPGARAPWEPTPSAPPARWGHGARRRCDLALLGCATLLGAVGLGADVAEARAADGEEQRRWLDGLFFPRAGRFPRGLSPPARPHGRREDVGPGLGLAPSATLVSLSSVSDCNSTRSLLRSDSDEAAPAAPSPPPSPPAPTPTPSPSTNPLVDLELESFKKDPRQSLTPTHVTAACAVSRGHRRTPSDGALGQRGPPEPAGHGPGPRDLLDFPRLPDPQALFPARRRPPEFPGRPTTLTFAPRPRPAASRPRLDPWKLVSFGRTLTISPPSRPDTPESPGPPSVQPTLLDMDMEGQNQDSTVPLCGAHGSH

Usually IC50 stands for the concentration that inhibits the measured activity by half. The low end stands for greater potency, the high end for weaker potency. `CCOCc1ccc2c(c1)c1c3c(c4c5cc(COCC)ccc5n5c4c1n2[C@H]1C[C@](O)(C(=O)OC)[C@]5(C)O1)CNC3=O`: the concentration for half-maximal inhibition (IC50) on Protein kinase C (PKC) was 2600 nM; in assay [1] it was 20 nM; in assay [2], 19 nM; in assay [3] it was 11 nM; in assay [4] it was 210 nM.
For `CCSCc1ccc2c(c1)c1c3c(c4c5ccccc5n5c4c1n2[C@@]1(C)O[C@@H]5C[C@]1(O)C(=O)OC)C(=O)NC3`, in that order: 400 nM, 28 nM, 28 nM, 21 nM and 61 nM.
Turning to `COC(=O)[C@@]1(O)C[C@H]2O[C@]1(C)n1c3ccc(CSC(C)C)cc3c3c4c(c5c6cc(CSC(C)C)ccc6n2c5c31)C(=O)NC4`, the IC50 is 980 nM at Protein kinase C (PKC); 89 nM in assay [1]; 45 nM in assay [2]; 31 nM in assay [3]; > 10000 nM in assay [4].
For `COCc1ccc2c(c1)c1c3c(c4c5cc(COC)ccc5n5c4c1n2[C@H]1C[C@](O)(C(=O)OC)[C@]5(C)O1)CNC3=O`, in that order: 450 nM, 16 nM, 16 nM, 11 nM and 270 nM.
As for `C=CCSCc1ccc2c(c1)c1c3c(c4c5cc(CSCC=C)ccc5n5c4c1n2[C@H]1C[C@](O)(C(=O)OC)[C@]5(C)O1)CNC3=O`, the IC50 is > 10000 nM on Protein kinase C (PKC), 162 nM in assay [2], 94 nM in assay [3] and > 1000 nM in assay [4].
Take `COC(=O)[C@@]1(O)C[C@H]2O[C@]1(C)n1c3ccc(CO)cc3c3c4c(c5c6cc(CO)ccc6n2c5c31)C(=O)NC4`: the results for the IC50 (against Protein kinase C (PKC); in assay [2]; in assay [3]) were 3 nM, 15 nM and 11 nM, respectively.
With `CCCCSCc1ccc2c(c1)c1c3c(c4c5cc(CSCCCC)ccc5n5c4c1n2[C@H]1C[C@](O)(C(=O)OC)[C@]5(C)O1)CNC3=O`, the IC50 on Protein kinase C (PKC) was > 7600 nM; in assay [1] it was 627 nM; in assay [2], 303 nM; in assay [3] it was 143 nM; in assay [4] it was > 1000 nM.
For `CCSCc1ccc2c(c1)c1c3c(c4c5ccccc5n5c4c1n2[C@H]1C[C@](O)(C(=O)OC)[C@]5(C)O1)CNC3=O`, in that order: 222 nM, 140 nM, 43 nM, 44 nM and > 1000 nM.
For `CCCSCc1ccc2c(c1)c1c3c(c4c5cc(CSCCC)ccc5n5c4c1n2[C@H]1C[C@](O)(C(=O)OC)[C@]5(C)O1)CNC3=O`, the IC50 against Protein kinase C (PKC) was > 10000 nM; in assay [2], 90 nM; in assay [3] it was 56 nM; in assay [4], > 10000 nM.
In the case of `COC(=O)[C@@]1(O)C[C@H]2O[C@]1(C)n1c3ccc(CSCCN(C)C)cc3c3c4c(c5c6cc(CSCCN(C)C)ccc6n2c5c31)C(=O)NC4`, the IC50 is 1600 nM against Protein kinase C (PKC), 360 nM in assay [2], 123 nM in assay [3] and > 1000 nM in assay [4].
As for `CCSCc1ccc2c(c1)c1c3c(c4c5cc(CSCC)ccc5n5c4c1n2[C@H]1C[C@](O)(C(=O)OC)[C@]5(C)O1)CNC3=O` [CEP-1347], the half-inhibitory concentration (IC50) at Protein kinase C (PKC) is > 10000 nM; in assay [1], 51 nM; in assay [2], 38 nM; in assay [3], 23.1 nM; in assay [4] it was > 10000 nM.

These data come from ChEMBL document CHEMBL1135365, “Mixed lineage kinase activity of indolocarbazole analogues” (Bioorg Med Chem Lett, 2002).
